Source: patent publication US10662194B2, “Substituted 6-anilino-9-heterocyclylpurine derivatives for inhibition of plant stress” (UNIVERZITA PALACKEHO V OLOMOUCI, priority 2014, dated 2020)

Legend:
[1] = test system: CKX1 overproducing (35S:CKX1) Arabidopsis seedlings; assay: In vitro shoot and root growth of cytokinin deficient Arabidopsis plants; format: in vivo
Text: Constitutive overexpression of CKX in 35S:CKX1 plants leads to enhanced root growth. If CKX inhibitor can restore WT phenotype, it is expected that inhibition of the CKX activity in 35S:AtCKX1 plants should thus have no effect or inhibit their root growth. Such observation was done in case of INCYDE, but not compound 12.

[2] = Calcein AM viability/cytotoxicity assay, MRC-5; format: cell-based; conditions: human, MRC-5 lung fibroblasts; MRC-5, 72 h, FIG. 11; read-out: IC50, concentration reducing number of viable cells to 50%
Text: Absence of toxic effects against mammalian (especially human) cell lines in a wide concentration range is one of the requirements on compounds intended for use in agriculture and medicine. Because toxic compounds negatively influence metabolic processes in cells, many standard cytotoxicity assays are based on measurement of metabolisation rate of various artificial substrates. Resulting product is then quantified e.g. by means of spectrometry. The assays can be easily modified for use in 96-well plates. For evaluation of cytotoxic effect of compounds of this invention, a microtiter assay based on quantification of metabolisation of Calcein AM was used. The assay is widely used in drug screening programs and in chemosensitivity testing. In live cells, Calcein AM is enzymatically hydrolysed and accumulation of resulting calcein is manifested by green fluorescence. The cytotoxicity of the studied compounds was determined with human fibroblast lines MRC-5 (lung fibroblasts) and BJ (foreskin fibroblasts). […] The fluorescence of the live cells was measured at 485 nm/538 nm (excitation/emission) with a Fluoroskan Ascent microplate reader (Labsystems). […]

[3] = test system: maize (hybrid Amadeo); assay: Seed coating, shoot and root growth of maize (pot experiment); format: in vivo
Experimental: The drenching experiments with model plant Arabidopsis pointed to potential application of compound 12 in stimulation of plant growth and development when the roots of the plants are exposed to the chemical. […] In the year 2011 pot experiment was performed with maize (hybrid Amadeo; KWS, FAO 230). The seeds were coated with 10 and 50 μM concentration of compound 12 mixed into seed treatment agent Cruiser OSR (Syngenta; 8 L of solution per 1000 kg of seeds). Seeds coated with only Cruiser OSR were used for control variant. The seeds were dried and then sown into the soil, one plant per 15 L pot (30 plants were used per variant). The plants were harvested after app. one month in stage DC 18 (eight leafs per plant). The shoots and the roots of each plant were separated and dried. The weight of dry shoot and root biomass was recorded. […] The plants, which seeds were coated with the lower concentration of compound 12, formed 2-times higher root dry biomass and 2.75-times higher shoot dry biomass. In total this was reflected by 2.3-times increase of the total plant dry weight.

[4] = seed coating, lower concentration (10 μM), stage DC 18

COc1cccc(Nc2nc(Cl)nc3c2ncn3C2CCCCO2)c1 (stereo not shown) [compound 12, 2-chloro-6-(3-methoxyanilino)-9-(tetrahydropyran-2-yl)purine]
complementation of wild type shoot phenotype ([1]; 0.1 μM in MS medium, FIG. 3, 4): led to restauration of wild type shoot phenotype
root biomass of 35S:CKX1 plants ([1]; tested concentration range, FIG. 5): strong dose-dependent positive effect
IC50 at 72 h [2]: > 100 µM
effect on shoot and root dry biomass ([3]; seed coating 10 and 50 μM, FIG. 10): dose-dependent stimulatory effect
increase of the total plant dry weight [3, 4]: 2.3 times
root dry biomass, times higher than control [3, 4]: 2 times
shoot dry biomass, times higher than control [3, 4]: 2.75 times
